Results published in publication PMC6017415, “Carbamates as Potential Prodrugs and a New Warhead for HDAC Inhibition” (Molecules : A Journal of Synthetic Chemistry and Natural …, 2018).
“And” between values parts separate entries of the source, which are not always exact repeats. Equal values may be shown once. Where a name gives a salt, the structure may show the parent alone.

Legend:
recombinant human HDAC1 = target: T1, recombinant human HDAC1 (Homo sapiens, UniProt Q13547); test: HDAC1 in vitro fluorescence-based inhibition assay (ZMAL substrate); type: biochemical; conditions: for IC50: read-out: IC50 (µM) ± SE HDAC1
T1 construct: purchased BPS Biosciences (San Diego, CA, USA)
T1 sequence (Q13547 whole entry): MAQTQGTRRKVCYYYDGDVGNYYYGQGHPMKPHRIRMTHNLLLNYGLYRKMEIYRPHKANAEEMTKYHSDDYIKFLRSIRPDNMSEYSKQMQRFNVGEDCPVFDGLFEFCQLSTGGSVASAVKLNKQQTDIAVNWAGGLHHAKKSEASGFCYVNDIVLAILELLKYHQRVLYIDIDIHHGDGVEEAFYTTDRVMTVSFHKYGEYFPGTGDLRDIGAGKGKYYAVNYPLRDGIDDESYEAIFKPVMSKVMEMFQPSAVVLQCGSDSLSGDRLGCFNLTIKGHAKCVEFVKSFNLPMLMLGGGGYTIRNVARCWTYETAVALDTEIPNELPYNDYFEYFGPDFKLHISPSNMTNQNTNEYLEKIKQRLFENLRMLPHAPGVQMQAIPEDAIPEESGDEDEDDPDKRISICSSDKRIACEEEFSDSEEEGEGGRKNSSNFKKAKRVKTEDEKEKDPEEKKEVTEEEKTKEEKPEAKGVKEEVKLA
Text: (§1) In order to investigate a potential subtype selectivity among different HDAC classes, we first tested them against the recombinant histone deacetylases HDAC1 (class I) and HDAC6 (class llb). […] To further address this issue, we also tested the respective compounds against the class l histone deacetylase HDAC8 (also see Table 1).
(§2) Recombinant human HDAC1 and 6 were purchased from BPS Biosciences (San Diego, CA, USA), and recombinant human HDAC8 was produced as described before. Inhibition tests of human HDAC1 and 6 were conducted using carboxybenzyl acetyllysine aminomethylcoumarin (ZMAL) as a substrate. […] For testing of HDAC8, the commercial Fluor de Lys drug discovery kit (BML-KI178) (Enzo Life Sciences, Lausen, Switzerland) was used according to the manufacturer’s instruction. Briefly, the test compound, Fluor de Lys-HDAC8 substrate (50 μM), and enzyme were incubated for 90 min at 37 °C with subsequent addition of 50 μL of Developer II (BML-KI176) (Enzo Life Sciences, Lausen, Switzerland) and further incubation for 45 min at 30 °C. In both assays, trichostatin A (2 μM) was used to stop the reaction. Fluorescence in both cases was measured in a plate reader (BMG Polarstar, BMG Labtech, Ortenberg, Germany) with excitation at λ = 390 nm and emission at λ = 460 nm.

recombinant human HDAC6 = target: T2, recombinant human HDAC6 (Homo sapiens, UniProt Q9UBN7); test: HDAC6 in vitro fluorescence-based inhibition assay (ZMAL substrate); type: biochemical; conditions: recombinant human HDAC6, ZMAL 10.5 µM, 90 min 37 °C; for IC50: read-out: IC50 (µM) ± SE HDAC6
T2 construct: purchased BPS Biosciences (San Diego, CA, USA)
T2 sequence (Q9UBN7 1-1215): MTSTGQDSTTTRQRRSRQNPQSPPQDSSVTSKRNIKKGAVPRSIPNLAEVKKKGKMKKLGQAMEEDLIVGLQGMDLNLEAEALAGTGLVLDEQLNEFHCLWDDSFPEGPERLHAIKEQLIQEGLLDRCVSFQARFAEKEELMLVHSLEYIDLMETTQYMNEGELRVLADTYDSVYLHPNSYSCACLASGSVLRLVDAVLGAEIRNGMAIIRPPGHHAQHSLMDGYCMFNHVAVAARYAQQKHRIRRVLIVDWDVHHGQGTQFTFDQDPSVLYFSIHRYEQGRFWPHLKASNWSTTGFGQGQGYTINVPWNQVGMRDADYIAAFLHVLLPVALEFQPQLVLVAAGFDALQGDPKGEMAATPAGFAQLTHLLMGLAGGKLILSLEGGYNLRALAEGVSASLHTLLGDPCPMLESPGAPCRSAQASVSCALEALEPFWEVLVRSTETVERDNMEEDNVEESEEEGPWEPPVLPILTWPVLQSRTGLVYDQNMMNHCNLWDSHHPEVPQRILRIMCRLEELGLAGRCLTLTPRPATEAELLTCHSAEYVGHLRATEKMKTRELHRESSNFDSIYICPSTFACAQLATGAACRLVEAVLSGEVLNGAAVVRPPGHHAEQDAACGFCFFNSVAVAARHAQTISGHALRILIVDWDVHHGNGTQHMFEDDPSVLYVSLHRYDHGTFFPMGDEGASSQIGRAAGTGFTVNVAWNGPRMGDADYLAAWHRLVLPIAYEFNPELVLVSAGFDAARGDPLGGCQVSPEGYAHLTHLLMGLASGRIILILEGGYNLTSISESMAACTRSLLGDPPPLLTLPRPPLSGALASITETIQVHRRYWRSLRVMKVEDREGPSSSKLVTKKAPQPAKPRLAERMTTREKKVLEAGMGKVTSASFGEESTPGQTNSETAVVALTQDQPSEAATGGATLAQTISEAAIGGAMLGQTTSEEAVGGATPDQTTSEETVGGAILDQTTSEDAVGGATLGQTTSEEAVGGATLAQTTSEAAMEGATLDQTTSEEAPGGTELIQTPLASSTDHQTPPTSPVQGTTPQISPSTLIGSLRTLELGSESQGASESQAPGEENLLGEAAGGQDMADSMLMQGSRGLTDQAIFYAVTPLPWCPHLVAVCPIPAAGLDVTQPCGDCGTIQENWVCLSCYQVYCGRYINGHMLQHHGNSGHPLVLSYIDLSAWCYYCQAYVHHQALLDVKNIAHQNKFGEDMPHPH
Text: as §1, §2

[1] = tested on: acetylation of histone H3 and tubulin in HL60 cells; test: Western blot of acetylation levels of histone H3 and tubulin in HL60 cells; type: cell-based, human; conditions: 4 h
Method: An inhibition of deacetylation in this experiment is expected to lead to hyperacetylation of the respective proteins. Besides histone H3, acetylated tubulin was chosen as a target protein. As tubulin is only accepted as a target by HDAC 6 [21], this allows us to explore subtype selectivity in a cellular setting (see Figure 4).
HL60 cells were treated with the inhibitors in the given concentrations. Cells treated with dimethyl sulfoxide as a vehicle were used as controls. After an incubation time of 4 h, cells were transferred into 50-mL Falcon tubes and centrifuged (300× g, 5 min). The supernatant was removed, and the cells were washed with PBS, before they were transferred to 1.7-mL reaction tubes. The cells were lysated with Bio-Rad loading buffer, and the cell suspension was heated to 95 °C for 5 min. The proteins then were separated using a 15% SDS-polyacrylamide gel electrophoresis and transferred to a polyvinylidene fluoride (PVDF) membrane (Roti-PVDF, Carl Roth, Karlsruhe, Germany). Acetylation levels were detected using an anti-acetyl histone H3 antibody (Millipore, Billerica, MA, USA) and an anti-acetyl-α-tubulin antibody (Sigma Aldrich, St. Louis, MO, USA). An antibody directed against GAPDH (Sigma Aldrich) was used as a loading control.

HL60 cells = test: Cell proliferation assay (CellTiter 96 AQueous) in HL60 cells; conditions: Homo sapiens, HL-60, 72 h, read-out: GI50 (µM) ± SE HL60
Method: (§3) To further investigate the inhibition properties of the carbamates, we tested their antiproliferative activity on human promyelocytic leukemia cells (HL60) and on human histiocytic lymphoma cells (U937).
(§4) HL60 or U937 cells were seeded in 96-well tissue culture plates at a density of 5 × 10^4 cells per well. Cells were immediately incubated with inhibitors. As these cells already differentiate with 1% DMSO content, inhibitors were prepared as 200× stock solutions in DMSO. In all cases, inhibitors were compared to DMSO vehicle only, and three replicates per concentration were used. Growth inhibition was determined using the CellTiter 96® AQueous Non-Radioactive Cell Proliferation Assay according to the manufacturer’s instructions. Briefly, 5 × 10^4 of HL60 or U937 cells per well were treated with DMSO stocks of the respective inhibitors or with DMSO in 100 µL cell culture medium and incubated for 72 h at 37 °C and 5% CO2 in transparent 96-well microtiter plates (PAA). Subsequently, 20 µL of the detection reagent (containing a tetrazolium salt) was added to each well and incubated for 4 more hours under the same conditions. After this time, absorption was measured at a wavelength of 490 nm (BMG Polarstar, BMG Labtech, Ortenberg, Germany).

recombinant human HDAC8 = target: T3, recombinant human HDAC8 (Homo sapiens, UniProt Q9BY41); test: HDAC8 in vitro inhibition assay (Fluor de Lys kit); type: biochemical; conditions: for inhibition at 100 µM: read-out: Inhibition (%) @ Conc. (µM) HDAC8
T3 construct: made in house
T3 sequence (Q9BY41 1-377): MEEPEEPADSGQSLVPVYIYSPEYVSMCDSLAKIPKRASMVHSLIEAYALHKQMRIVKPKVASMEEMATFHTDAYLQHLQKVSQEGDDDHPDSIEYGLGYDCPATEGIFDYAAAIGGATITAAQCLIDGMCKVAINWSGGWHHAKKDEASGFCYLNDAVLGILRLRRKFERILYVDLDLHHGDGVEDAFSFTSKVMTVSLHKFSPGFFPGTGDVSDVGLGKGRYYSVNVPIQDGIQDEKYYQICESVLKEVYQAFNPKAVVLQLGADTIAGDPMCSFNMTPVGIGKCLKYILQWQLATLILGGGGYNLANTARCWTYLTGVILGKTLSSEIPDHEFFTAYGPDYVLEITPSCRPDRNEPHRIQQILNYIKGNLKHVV
Text: as §1, §2

[2] = Stability analysis under in vitro assay conditions, HPLC quantification of released hydroxamic acid; type: physicochemical; conditions: in vitro assay conditions without substrate, HDAC1 present, compound 2.4 mM, 90 min 37 °C
Method: In order to address the question if the newly-synthesized carbamates are hydrolyzed during the assay procedure or if they really serve as HDAC inhibitors themselves, stability stress tests were performed. For this purpose, the compounds were subjected to the standard in vitro assay conditions, but without adding a substrate as, no enzyme conversion should be observed in these experiments. After 90 min of incubation at 37 °C, the release of SAHA of the different samples was detected and quantified via HPLC. This led to the finding that a release of SAHA could be detected for all samples (see Table 1). […] This means that the question if the carbamate scaffold represents a new warhead for HDAC inhibition or if the degradation to SAHA is solely responsible for the observed inhibitory effects cannot be resolved completely.
To test the stability of Compound 9 under assay conditions, we also performed stability analysis with HPLC quantification. This experiment led to the finding that 8.7% of the carbamate 9 is degraded under release of bufexamac during incubation time. This fraction of released bufexamac may contribute to in vitro and cellular HDAC inhibition, but the observed selectivity profile of the carbamate in the in vitro assays clearly implies an intrinsic HDAC activity of carbamates.
For stability tests, the carbamates were subjected to the described in vitro assay conditions (see above) without adding the substrate ZMAL and without the second incubation step with trypsin. Compounds were applied in a final concentration of 2.4 mM, and recombinant HDAC1 was used as the enzyme. After 90 min of incubation at 37 °C, the release of SAHA was detected via HPLC on an Agilent 1200 series device. The employed analytical column was a Kinetex 5u XB-C18, 100 Å, 250 × 4.6 mm (Phenomenex, Torrance, CA, USA) with the ReproSil 100 C18 5-µm precolumn (Jasco, Oklahoma City, OK, USA). The following conditions were applied: Eluent A: H2O containing 0.05% TFA, Eluent B: acetonitrile containing 0.05% TFA, linear gradient conditions (0–4 min, A = 90%, B = 10%; 4–29 min, linear increase to 100% of B; 29–31 min, B = 100%; 31.5–40 min, A = 10%, B = 90%); injection volume: 30 µL, flow rate: 1 mL/min; detection wavelength: λ = 254 nm. For evaluation, the ChemStation software from Agilent was used. To quantify the released amount of SAHA and bufexamac, calibration curves were plotted by incubating DMSO stocks of these compounds under in vitro assay conditions with final compound concentrations ranging from 1 µM–200 µM. HPLC analysis with the conditions described above led to the following equations: y = 13.935x − 27.918 for SAHA and y = 0.6099x + 1.1301 for bufexamac.

[3] = tested on: HDAC activity in HL60 cells; test: Cellular HDAC inhibition assay (MAL substrate) in HL60 cells; conditions: Homo sapiens, HL-60, read-out: IC50 (µM) ± SE cellular HDAC inhibition HL60
Method: (§5) Therefore, we decided to adapt this assay for a cellular setting allowing us to verify the previous results by assessing HDAC inhibition in the human leukemia cell lines HL60 and U937 (see the right side of Table 2).
(§6) After 2 h of incubation, 50 µL substrate solution were added, containing tert-butyloxycarbonyl acetyl lysine aminomethylcoumarin (MAL) as a substrate (300 µM final assay concentration) and IGEPAL CA-630 (final concentration 0.05%). After 2 more hours of incubation at 37 °C and 5% CO2, 50 µL stop solution consisting of 0.5 µL TSA (100 µM) and 5 µL trypsin solution (10 mg/mL) in 44.5 µL cell buffer were added. This mixture was incubated for a further 20 min at 37 °C. Fluorescence was measured in a plate reader (BMG Polarstar) with excitation at λ = 390 nm and emission at λ = 460 nm.

[4] = tested on: HDAC activity in U937 cells; test: Cellular HDAC inhibition assay (MAL substrate) in U937 cells; conditions: Homo sapiens, U-937, read-out: IC50 (µM) ± SE cellular HDAC inhibition U937
Method: as §5, §6

U937 cells = test: Cell proliferation assay (CellTiter 96 AQueous) in U937 cells; conditions: Homo sapiens, U-937, 72 h, read-out: GI50 (µM) ± SE U937
Method: as §3, §4

[5] = recombinant human HDAC1, ZMAL 10.5 µM, 90 min 37 °C

Compound	IC50 (recombinant human HDAC1; [5])	IC50 (recombinant human HDAC6)	acetylation levels of H3 [1]	tubulin acetylation [1]	GI50 (HL60 cells) [µM]	IC50 (µM) ± SE HDAC1 (recombinant human HDAC1; [5])	IC50 (µM) ± SE HDAC6 (recombinant human HDAC6)	inhibition at 100 µM (recombinant human HDAC8) [%]	Release of SAHA (%) [2] [%]	IC50 [3] [µM]	IC50 [4] [µM]	GI50 (U937 cells) [µM]	IC50 (recombinant human HDAC8; recombinant human HDAC8, Fluor de Lys-HDAC8 substrate 50 µM, 90 min 37 °C, read-out: IC50 (µM) ± SE HDAC8)	effect on H3 and tubulin acetylation levels [1]	inhibition at 300 µM (recombinant human HDAC1; at 300 µM, read-out: Inhibition (%) @ Concentration (µM) HDAC1) [%]
CCCCOc1ccc(CC(=O)NO)cc1 [Bufexamac (8), bufexamac, reference compound]	31.7 ± 4.75 µM	2.24 ± 0.05 µM	not affected	hyperacetylation of tubulin	31.8 ± 0.57										
CC(C)NC(=O)ONC(=O)CCCCCCC(=O)Nc1ccccc1 [Compound 2a, [(8-Anilino-8-oxo-octanoyl)amino]N-isopropylcarbamate]	1.52 ± 0.02 µM	2.11 ± 0.02 µM			1.02 ± 0.09	low micromolar range	low micromolar range	35	2.2	3.25 ± 0.02	5.3 ± 0.59	0.49 ± 0.09			
O=C(CCCCCCC(=O)Nc1ccccc1)NOC(=O)NCc1ccccc1 [Compound 2b, [(8-Anilino-8-oxo-octanoyl)amino]N-benzylcarbamate]	0.74 ± 0.01 µM	0.637 ± 0.002 µM			1.06 ± 0.11			52	0.5	1.89 ± 0.04	3.02 ± 0.03	0.68 ± 0.09			
CCNC(=O)ONC(=O)CCCCCCC(=O)Nc1ccccc1 [Compound 2c, [(8-Anilino-8-oxo-octanoyl)amino]N-ethylcarbamate]	0.79 ± 0.01 µM	0.58 ± 0.01 µM			0.99 ± 0.17			68	14.5	1.42 ± 0.53	2.07 ± 0.04	0.88 ± 0.13			
O=C(CCCCCCC(=O)Nc1ccccc1)NOC(=O)Nc1ccccc1 [Compound 2d, [(8-Anilino-8-oxo-octanoyl)amino]N-phenylcarbamate]	0.132 ± 0.001 µM	0.187 ± 0.007 µM			0.58 ± 0.05				4.6	0.69 ± 0.004	0.71 ± 0.002	0.42 ± 0.13	6.5 µM and 6.49 µM	in the same range as SAHA	
O=C(CCCCCCC(=O)Nc1ccccc1)NOC(=O)N1CCNCC1 [Compound 7, [(8-Anilino-8-oxo-octanoyl)amino]piperazin-4-ium-1-carboxylate trifluoroacetate]	5.1 µM and 5.09 µM	3.7 µM and 3.71 µM			25.9 ± 1.96				3.7	22.4 ± 0.28				least effective substance	
CCCCOc1ccc(CC(=O)NOC(=O)NC(C)C)cc1 [Compound 9]		13.7 ± 0.16 µM	not affected	hyperacetylation of tubulin	33.99 ± 0.06										49
O=C(CCCCCCC(=O)Nc1ccccc1)NO [SAHA (1), N-hydroxy-N′-phenyloctanediamide, reference compound]					0.54 ± 0.03							0.43 ± 0.09			
